Article PMC11352108, “Anti-Biofilm and Anti-Inflammatory Properties of the Truncated Analogs of the Scorpion Venom-Derived Peptide IsCT against Pseudomonas aeruginosa” (Antibiotics, 2024)
Where no end group is shown, it is not given here.

Tests used:
sheep red blood cells = assay: Hemolytic assay; type: cell-based; conditions: for Hemolytic activity (in words): sheep erythrocytes, concentrations as high as 150 μM; for % Hemolysis, Exp.1: replicate Exp.1; for % Hemolysis, Exp.2: replicate Exp.2; for % Hemolysis, Exp.3: replicate Exp.3
Description: A hemolytic assay was carried out according to the previously described method using commercially sourced sheep red blood cells (Professional Nanomed Company Limited, Bangkok, Thailand). One hundred microliters of a 2% sheep red blood cell suspension prepared in phosphate-buffered saline (PBS) pH 7.4. was incubated for 1 h at 37 °C with 100 μL of the studied peptides (final concentration of 150 µM). After centrifugation at 1000× g for 5 min, 100 μL of supernatant was transferred to new 96-well plates, and the release of hemoglobin was monitored, measuring an optical density (OD) at 405 nm using a BioTek Synergy HT microplate reader. Red blood cells treated with PBS pH 7.4 were used as a negative control, while those treated with 1% Triton X-100 were used as a positive control. The percent hemolysis was calculated as follows:(1) % Hemolysis=OD405 nm of the test peptide−OD405 nm of negative control/OD405 nm of positive control−OD405 nm of negative control × 100

[1] = test system: P. aeruginosa PAO1 biofilms; assay: Biofilm susceptibility assay (crystal violet); type: cell-based, Pseudomonas aeruginosa; conditions: 150 μM, 24 h, 37 °C; for Decrease in P. aeruginosa biofilm biomass: 10^6 CFU/mL, OD 550 nm, compared with untreated control
Description: The effect of the truncated IsCT analogs on biofilms of P. aeruginosa was assessed using a method that was described previously. Briefly, 100 μL of the test peptides (final concentration, 150 μM) was added to each well of a 96-well microtiter plate (Nunc^TM, Roskilde, Denmark). Then, an aliquot of P. aeruginosa PAO1 culture was added to each well to obtain a final concentration of 10^6 CFU/mL. The bacterial culture alone was included as an untreated control. Following a 24-h incubation at 37 °C, unattached planktonic cells were discarded, and the wells were carefully washed twice with PBS with a pH of 7.4. Thereafter, biofilm biomasses were quantified by 0.1% crystal violet staining. After excess stains were discarded, the wells were washed with PBS pH 7.4 and left to air dry for 2 h at 37 °C. The biofilm biomass was subsequently dissolved by the addition of 30% acetic acid, and the plates were spectrophotometrically read at 550 nm using a BioTek Synergy HT microplate reader.

P. aeruginosa biofilm = conditions: at 4 μM; cited from earlier work
Excerpt: We next determined the anti-biofilm potentials of the truncated IsCT analogs against biofilms formation of P. aeruginosa. […] Antibacterials with growth-inhibitory activity may accelerate the evolutionary pressure and ultimately lead to troublesome antibiotic resistance.

[2] = sheep red blood cells, 1 h, 37 °C, peptides 150 μM (Triton X-100 1%)

Row | Substance | Hemolytic activity (in words) (sheep red blood cells) | % Hemolysis, Exp.1 (sheep red blood cells; [2]) [%] | % Hemolysis, Exp.2 (sheep red blood cells; [2]) [%] | % Hemolysis, Exp.3 (sheep red blood cells; [2]) [%] | Decrease in P. aeruginosa biofilm biomass [1] [%] | Anti-biofilm activity (in words) [1] | Inhibition of P. aeruginosa biofilm production (P. aeruginosa biofilm) [%] | % Hemolysis (sheep red blood cells; 2% sheep red blood cells in PBS pH 7.4, 1 h, 37 °C, peptides 150 μM (Triton X-100 1%, positive control), OD 405 nm, mean ± SEM of independent experiments) [%] | % Hemolysis, Mean (sheep red blood cells; sheep red blood cells, 1 h, 37 °C, peptides 150 μM (Triton X-100 1%), mean of 3 experiments (supplement)) [%]
1 | ILGKIGIKSLF [IsCT-Δ6-7] | decreased hemolytic activity | 0.00 | 0.0473 | 2.44 | 28.27 |  |  |  | 
2 | ILGKIWKSLF [IsCT-Δ7-9] | decreased hemolytic activity | 0.18 | 0.00 | 1.13 |  | less pronounced |  |  | 
3 | β-defensin 2: an AMP, human beta-defensin 2 (GIGDPVTCLKSGAICHPVFCPRRYKQIGTCGLPGTKCCKKP; ends and bridges not checked; cysteine pairing not given here; UniProt O15263 24-64, looked up) |  |  |  |  |  |  | 40 |  | 
4 | Triton X-100 [reference compound] |  | 100.00 | 100.00 | 100.00 |  |  |  | 100.00 ± 0.00 | 100.00
5 | ILGKIKSLF [IsCT-Δ6-9] | decreased hemolytic activity | 0.38 | 0.00 | 1.03 | 26.45 |  |  |  | 
6 | ILGKIWIKSLF [IsCT-Δ7-8] | decreased hemolytic activity | 0.25 | 2.48 | 3.66 |  | less pronounced |  |  | 
